In US5710129A, “Inhibitors of SH2-mediated processes” (Ariad Pharmaceuticals, Inc., priority 1995, dated 1998):
“And” between values parts separate entries of the source, which are not always exact repeats. Equal values may be shown once. Read-outs that look alike come from different tables or passages of the source. Square brackets hold non-standard residues; d marks the D form. Peptide text beside a SMILES is read from it. * marks the point of attachment. Tyr(3,5-(NO2)2) = N[C@@H](Cc1cc([N+](=O)[O-])c(O)c([N+](=O)[O-])c1)C(=O)O; Acetyl(9-fluorenyl) = O=C(CC1c2ccccc2-c2ccccc21)*; Propanoyl(3,3-Ph2) = O=C(CC(c1ccccc1)c1ccccc1)*; Acetyl(1-naphthyl) = O=C(Cc1cccc2ccccc12)*; Acetyl(2-naphthyl) = O=C(Cc1ccc2ccccc2c1)*; 1Nal = N[C@@H](Cc1cccc2ccccc12)C(=O)O; 2Nal = N[C@@H](Cc1ccc2ccccc2c1)C(=O)O; Fmoc = O=C(OCC1c2ccccc2-c2ccccc21)*; Butanoyl(4-Ph) = O=C(CCCc1ccccc1)*; 2Naphthoyl = O=C(c1ccc2ccccc2c1)*; Hydrocinnamoyl = O=C(CCc1ccccc1)*; X1 = CC(CC(=O)*)c1ccccc1; PhAc = O=C(Cc1ccccc1)*

What was measured:
pp72^syk (163-265) = target: T1, pp72^syk (163-265) (Homo sapiens, UniProt P43405); experiment: C-Syk competitive binding assay, surface plasmon resonance (BIAcore); conditions: 270 nM protein; hemiphosphorylated γ-chain ITAM of human FcεRI as ligand; read-out: CSyk IC-50
T1 construct: Assays were run in HBS using 270 nM pp72^syk (163-265)
Experimental: (§1) Binding was measured by competition using surface plasmon resonance (Malmqvist, M. (1993) Current Opinions in Immunology 5, 282-286) as implemented in the BIAcore Biosensor (Pharmacia Biosensor, Piscataway, N.J.). […] Results were compared to binding measured in the absence of competitor and expressed as percent inhibition. IC50values reflect the concentration of inhibitor required to reduce binding by 50%. Specifics of individual assays are described below. All asssays were run in HEPES Buffered Saline (HBS) composed of 10 mM HEPES (pH 7.4)/150 mM NaCl/3.4 mM EDTA/0.05% Surfactant P20at 25° C. and a flow rate of 5 uL min^-1.
A pp72^syk peptide ligand corresponding to a hemiphosphorylated γ-chain ITAM of human Fcε RI [DGVY(PO4)TGLSTRNQETYETLK] was synthesized as part of a larger peptide [Ac-CGGDGVY(PO4)TGLSTRNQETYETLK-NH2 ] and used to generate a C-Syk-sensitive biosensor surface as described above for tandem syk. Assays were run in HBS using 270 nM pp72^syk (163-265)±test inhibitor.

pp70^ZAP (1-259) = target: T2, pp70^ZAP (1-259) (Homo sapiens, UniProt P43403); experiment: Tandem ZAP competitive binding assay, surface plasmon resonance (BIAcore); conditions: for IC50: read-out: N,CZap IC-50
T2 sequence (P43403 1-259): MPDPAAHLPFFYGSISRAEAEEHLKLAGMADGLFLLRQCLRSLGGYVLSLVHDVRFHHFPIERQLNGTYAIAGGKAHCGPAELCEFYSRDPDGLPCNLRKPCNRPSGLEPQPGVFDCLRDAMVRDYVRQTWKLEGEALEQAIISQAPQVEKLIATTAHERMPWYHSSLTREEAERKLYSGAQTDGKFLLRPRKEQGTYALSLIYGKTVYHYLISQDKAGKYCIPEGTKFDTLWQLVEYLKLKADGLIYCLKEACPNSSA
Experimental: as §1
A pp70^ZAP peptide ligand corresponding to the .zeta.-chain ITAM-1 of the human T-cell receptor [NQLY(PO4)NELNIGRREEY(PO4)DVLD] [SEQ ID NO:20] was synthesized as a part of a larger peptide [Ac-KGGNQLY(PO4)NELNIGRREEY-(PO4)DVLD-NH2 ] [SEQ ID NO:21] and used to generate a ZAP-sensitive biosensor surface. Specifically, a Biosensor Chip CM5was activated with 200 mM EDC/50 mM NHS to generate a surface reactive to primary amines and the ITAM peptide immobilized through the N-terminal lysine. Unreacted sites were blocked with ethanolamine (1M in water) and the chip cleaned of non-covalently bound peptide using 6M guanidine hydrochloride. Assays were run in HBS using 10 nM pp70^ZAP (1-259)±test inhibitor. (The designation "b22" indicates use of a corresponding γ-chain ITAM for the .zeta.-chain ITAM.)

pp60^src (144-251) = target: T3, pp60^src (144-251) (Homo sapiens, UniProt P12931); experiment: Src competitive binding assay, surface plasmon resonance (BIAcore); conditions: for IC50: 270 nM protein, hamster Middle-T antigen phosphopeptide as ligand, read-out: Src IC-50
T3 construct: Assays were run in HBS using 270 nM pp60^src (144-251)
T3 sequence (P12931 144-251): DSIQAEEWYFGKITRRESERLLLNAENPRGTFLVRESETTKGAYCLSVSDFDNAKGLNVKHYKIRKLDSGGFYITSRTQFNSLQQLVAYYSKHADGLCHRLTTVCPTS
Experimental: as §1
A p60^src peptide ligand corresponding to the hamster Middle-T antigen [QY(PO4)EEIPI] [SEQ ID NO:22] was synthesized as a part of a larger peptide [Ac-KGGQY(PO4)EEIPI-NH2 ] [SEQ ID NO:23] and used to generate a src-sensitive biosensor surface as described above for tandem ZAP. Assays were run in HBS using 270 nM pp60^src (144-251)±test inhibitor.

pp72^syk (1-265) = target: T4, pp72^syk (1-265) (Homo sapiens, UniProt P43405); experiment: Tandem Syk competitive binding assay, surface plasmon resonance (BIAcore); conditions: for N,CSyk 1%/Min / IC50: 20 nM protein, γ-chain ITAM of human FcεRI as ligand; for IC50: read-out: N,CSyk IC-50
T4 construct: Assays were run in HBS using 20 nM pp72^syk (1-265)
Experimental: as §1
A pp72^syk peptide ligand corresponding to the γ-chain ITAM of human Fcε RI [DGVY(PO4)TGLSTRNQETY(PO4)ETLK] [SEQ ID NO:18] was synthesized as part of a larger peptide [Ac-CGGDGVY(PO4)TGLSTRNQETY-(PO4)ETLK-NH2] [SEQ ID NO:19] and used to generate a Syk-sensitive biosensor surface. Specifically, a Biosensor Chip CM5was activated with 200 mM ethyl-3-(3-dimethylaminopropyl)-carbodiimide hydrochloride (EDC)/50 mM N-hydroxysuccinimide (NHS) to generate a surface reactive to primary amines; treated with ethylenediamine to generate a surface rich in primary amines; activated with m-maleimidobenzoyl-N-hydroxysuccinimide ester (sulfo-MBS; 50 mM in 25 mM NaHCO3) to generate a surface reactive to free thiols; and the ITAM peptide immobilized through the N-terminal cysteine. Unreacted sites were blocked with β-mercaptoethanol and the chip cleaned of noncovalently bound peptide using 6M guanidine hydrochloride. Assays were run in HBS using 20 nM pp72^syk (1-265)±test inhibitor.

[1] = 10 nM protein, ζ-chain ITAM-1 of human T-cell receptor as ligand

Structure (SMILES)	IC50 (pp72^syk (163-265)) [µM]	IC50 (pp60^src (144-251)) [µM]	IC50 (pp72^syk (1-265))	IC50 (pp70^ZAP (1-259); [1]) [µM]	other results
CC(C)C[C@H](NC(=O)[C@@H](NC(=O)[C@H](CCC(=O)O)NC(=O)[C@H](Cc1cc([N+](=O)[O-])c(O)c([N+](=O)[O-])c1)NC(=O)c1ccc2ccccc2c1)[C@@H](C)O)C(N)=O (2Naphthoyl-[Tyr(3,5-(NO2)2)]ETL-NH2)	35	> 1000	380 µM		N,CZap inhibition (pp70^ZAP (1-259); @ 100 (μM)): ni; N,CSyk 1%/Min (pp72^syk (1-265)): 67 µM
CC(=O)N[C@@H](Cc1ccccc1)C(=O)N[C@@H](Cc1cc([N+](=O)[O-])c(O)c([N+](=O)[O-])c1)C(=O)N[C@@H](CCC(=O)O)C(=O)N[C@H](C(=O)N[C@@H](CC(C)C)C(N)=O)[C@@H](C)O (Ac-F[Tyr(3,5-(NO2)2)]ETL-NH2)	200		> 100 µM	> 1000	
CC(=O)N[C@@H](Cc1cccc2ccccc12)C(=O)N[C@@H](Cc1cc([N+](=O)[O-])c(O)c([N+](=O)[O-])c1)C(=O)N[C@@H](CCC(=O)O)C(=O)N[C@H](C(=O)N[C@@H](CC(C)C)C(N)=O)[C@@H](C)O (Ac-[1Nal][Tyr(3,5-(NO2)2)]ETL-NH2)	200	> 500	800 µM	> 100	
CC(=O)N[C@@H](Cc1ccc2ccccc2c1)C(=O)N[C@@H](Cc1cc([N+](=O)[O-])c(O)c([N+](=O)[O-])c1)C(=O)N[C@@H](CCC(=O)O)C(=O)N[C@H](C(=O)N[C@@H](CC(C)C)C(N)=O)[C@@H](C)O (Ac-[2Nal][Tyr(3,5-(NO2)2)]ETL-NH2)	> 500		> 100 µM	> 500	
CC(=O)N[C@H](Cc1ccccc1)C(=O)N[C@@H](Cc1cc([N+](=O)[O-])c(O)c([N+](=O)[O-])c1)C(=O)N[C@@H](CCC(=O)O)C(=O)N[C@H](C(=O)N[C@@H](CC(C)C)C(N)=O)[C@@H](C)O (Ac-[dF][Tyr(3,5-(NO2)2)]ETL-NH2)	50	500		> 100	
CC(C)C[C@H](NC(=O)[C@@H](NC(=O)[C@H](CCC(=O)O)NC(=O)[C@H](Cc1cc([N+](=O)[O-])c(O)c([N+](=O)[O-])c1)NC(=O)CCc1ccccc1)[C@@H](C)O)C(N)=O (Hydrocinnamoyl-[Tyr(3,5-(NO2)2)]ETL-NH2)	11	410	460 µM	> 100	
CC(C)C[C@H](NC(=O)[C@@H](NC(=O)[C@H](CCC(=O)O)NC(=O)[C@H](Cc1cc([N+](=O)[O-])c(O)c([N+](=O)[O-])c1)NC(=O)Cc1ccccc1)[C@@H](C)O)C(N)=O (PhAc-[Tyr(3,5-(NO2)2)]ETL-NH2)	70	> 1000	> 1000 µM	> 1000	
CC(C)C[C@H](NC(=O)[C@@H](NC(=O)[C@H](CCC(=O)O)NC(=O)[C@H](Cc1cc([N+](=O)[O-])c(O)c([N+](=O)[O-])c1)NC(=O)CC(C)c1ccccc1)[C@@H](C)O)C(N)=O (some centres unmarked) (X1-[Tyr(3,5-(NO2)2)]ETL-NH2)					N,CSyk 1%/Min (pp72^syk (1-265)): 14 µM
CC(C)C[C@H](NC(=O)[C@@H](NC(=O)[C@H](CCC(=O)O)NC(=O)[C@H](Cc1cc([N+](=O)[O-])c(O)c([N+](=O)[O-])c1)NC(=O)Cc1cccc2ccccc12)[C@@H](C)O)C(N)=O ({Acetyl(1-naphthyl)}-[Tyr(3,5-(NO2)2)]ETL-NH2)	24	> 1000	100 µM	> 100	
CC(C)C[C@H](NC(=O)[C@@H](NC(=O)[C@H](CCC(=O)O)NC(=O)[C@H](Cc1cc([N+](=O)[O-])c(O)c([N+](=O)[O-])c1)NC(=O)Cc1ccc2ccccc2c1)[C@@H](C)O)C(N)=O ({Acetyl(2-naphthyl)}-[Tyr(3,5-(NO2)2)]ETL-NH2)	20	500		> 100	N,CSyk percent inhibition (pp72^syk (1-265); @ 50 (μM)): 30%
CC(C)C[C@H](NC(=O)[C@@H](NC(=O)[C@H](CCC(=O)O)NC(=O)[C@H](Cc1cc([N+](=O)[O-])c(O)c([N+](=O)[O-])c1)NC(=O)CC1c2ccccc2-c2ccccc21)[C@@H](C)O)C(N)=O ({Acetyl(9-fluorenyl)}-[Tyr(3,5-(NO2)2)]ETL-NH2)	26	710	50 µM	> 100	
CC(C)C[C@H](NC(=O)[C@@H](NC(=O)[C@H](CCC(=O)O)NC(=O)[C@H](Cc1cc([N+](=O)[O-])c(O)c([N+](=O)[O-])c1)NC(=O)CCCc1ccccc1)[C@@H](C)O)C(N)=O ({Butanoyl(4-Ph)}-[Tyr(3,5-(NO2)2)]ETL-NH2; N-terminus assumed)					N,CSyk 1%/Min (pp72^syk (1-265)): 48 µM
CC(C)C[C@H](NC(=O)[C@@H](NC(=O)[C@H](CCC(=O)O)NC(=O)[C@H](Cc1cc([N+](=O)[O-])c(O)c([N+](=O)[O-])c1)NC(=O)CC(c1ccccc1)c1ccccc1)[C@@H](C)O)C(N)=O ({Propanoyl(3,3-Ph2)}-[Tyr(3,5-(NO2)2)]ETL-NH2)	15	> 1000	100 µM		N,CZap inhibition (pp70^ZAP (1-259); @ 1000 (μM)): ni
CC(C)C[C@H](NC(=O)[C@@H](NC(=O)[C@H](CC(=O)O)NC(=O)[C@H](Cc1cc([N+](=O)[O-])c(O)c([N+](=O)[O-])c1)NC(=O)OCC1c2ccccc2-c2ccccc21)C(C)C)C(N)=O [DVLNH2] (Fmoc-[Tyr(3,5-(NO2)2)]DVL-NH2)			24 µM and 30 µM	> 100	Src percent inhibition (pp60^src (144-251); @ 100 (μM)): 25%
CC(C)C[C@H](NC(=O)[C@@H](NC(=O)[C@H](CCC(=O)O)NC(=O)[C@H](Cc1cc([N+](=O)[O-])c(O)c([N+](=O)[O-])c1)NC(=O)OCC1c2ccccc2-c2ccccc21)[C@@H](C)O)C(N)=O [ETLNH2] (Fmoc-[Tyr(3,5-(NO2)2)]ETL-NH2)	30	> 1000	80 µM and 81 µM	350	IC50 (pp70^ZAP (1-259); b22: corresponding γ-chain ITAM used for the ζ-chain ITAM): 20 µM
CC(C)C[C@H](NC(=O)[C@H](CCC(=O)O)NC(=O)[C@H](CC(N)=O)NC(=O)[C@H](Cc1cc([N+](=O)[O-])c(O)c([N+](=O)[O-])c1)NC(=O)OCC1c2ccccc2-c2ccccc21)C(N)=O [NELNH2] (Fmoc-[Tyr(3,5-(NO2)2)]NEL-NH2)					N,CZap percent inhibition (pp70^ZAP (1-259); @ 50 (μM)): 10%; Src percent inhibition (pp60^src (144-251); @ 50 (μM)): 5%; N,CSyk percent inhibition (pp72^syk (1-265); @ 50 (μM)): 15%
CC(C)C[C@H](NC(=O)CNC(=O)[C@@H](NC(=O)[C@H](Cc1cc([N+](=O)[O-])c(O)c([N+](=O)[O-])c1)NC(=O)OCC1c2ccccc2-c2ccccc21)[C@@H](C)O)C(N)=O [TGLNH2] (Fmoc-[Tyr(3,5-(NO2)2)]TGL-NH2)					N,CSyk percent inhibition (pp72^syk (1-265); @ 23 (μM)): 35%
